This note sets out measurements from paper PMC9312113, “Bioactive Components from Ampelopsis japonica with Antioxidant, Anti-α-Glucosidase, and Antiacetylcholinesterase Activities” (Antioxidants, 2022).

Where two headings read alike, the source gives them in different places.

The nature of assay [1]: DPPH radical scavenging activity. Particulars: n = 3. The protocol:
This assay was determined using the procedure previously reported.

In assay [2] the target is acetylcholinesterase (AChE) (Electrophorus electricus, UniProt O42275). The assay can be described thus: biochemical.
Assay [3] is described as follows: Ferric reducing antioxidant power (FRAP) assay. As for the experimental part:
The FRAP assay was measured using the procedure previously described.

The nature of assay [4]: ABTS radical scavenging assay. Particulars: n = 3. As for the experimental part: This assay was assessed using the procedure previously described.
Assay [5] can be described thus: Superoxide radical scavenging assay. Particulars: isolated compounds (Table 5); n = 3. As for the experimental part:
This assay was determined by the method previously described.

[6] abbreviates: isolated components (Table 6), read-out: IC50 AChE (converted).
Where [7] appears, read: isolated compounds (Table 5), Trolox equivalents.
[8] abbreviates: solvent extracts (Table 2), concentration causing 50% free radical scavenging.

Chain of acetylcholinesterase (AChE) (O42275 24-633): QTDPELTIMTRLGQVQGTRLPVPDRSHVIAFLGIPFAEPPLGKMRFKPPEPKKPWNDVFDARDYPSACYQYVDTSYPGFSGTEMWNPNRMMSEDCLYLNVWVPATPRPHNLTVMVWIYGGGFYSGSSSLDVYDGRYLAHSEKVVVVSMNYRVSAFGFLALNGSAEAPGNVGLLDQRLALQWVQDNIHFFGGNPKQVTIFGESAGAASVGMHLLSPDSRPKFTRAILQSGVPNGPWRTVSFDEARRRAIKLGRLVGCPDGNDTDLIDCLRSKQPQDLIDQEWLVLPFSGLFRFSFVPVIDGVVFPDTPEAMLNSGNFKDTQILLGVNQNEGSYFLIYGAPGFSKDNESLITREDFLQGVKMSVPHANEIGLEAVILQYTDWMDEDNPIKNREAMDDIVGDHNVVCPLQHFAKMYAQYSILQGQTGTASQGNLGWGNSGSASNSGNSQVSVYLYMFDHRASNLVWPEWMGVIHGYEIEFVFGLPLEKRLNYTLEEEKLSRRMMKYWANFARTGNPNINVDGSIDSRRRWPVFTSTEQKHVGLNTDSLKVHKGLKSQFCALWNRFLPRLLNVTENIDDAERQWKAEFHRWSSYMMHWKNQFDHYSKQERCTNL

In general, IC50 refers to the concentration that inhibits the measured activity by half. As to `Oc1cc(O)c2c(c1)O[C@H](c1ccc(O)c(O)c1)[C@H](O)C2` [Compound 7, epicatechin], the “SC50 DPPH” value in assay [1] (isolated compounds (Table 5)) was 2.78 ± 0.25 µg/mL. In addition, the IC50 in assay [2] (setting [6]) was 184 µM. In addition, the “FRAP, TE” value in assay [3] (setting [7]) is on record as 13,122.77 ± 182.42 mM/g. For the same compound, the “SC50 ABTS” value in assay [4] (isolated compounds (Table 5)) stood at 3.78 ± 0.03 µg/mL. In addition, the “SC50 Superoxide” value in assay [5] is 41.76 ± 4.20 µg/mL.
For the compound `O=c1c(O)c(-c2ccc(O)cc2)oc2cc(O)cc(O)c12` [Compound 3, kaempferol], the “SC50 DPPH” value in assay [1] (isolated compounds (Table 5)) was found to be 12.48 ± 3.01 µg/mL. The “FRAP, TE” value in assay [3] (setting [7]) is recorded as 7912.47 ± 220.08 mM/g. Besides, in assay [4] (isolated compounds (Table 5)), the “SC50 ABTS” value is 5.24 ± 0.45 µg/mL.
As for `O=C(O)c1cc(O)c(O)c(O)c1` [Compound 2, gallic acid], the “SC50 DPPH” value in assay [1] (isolated compounds (Table 5)) worked out at 2.60 ± 0.67 µg/mL. In assay [2], this compound had a 50% inhibitory concentration (IC50) of 244 µM. Further, the “FRAP, TE” value in assay [3] (setting [7]) is recorded as 28,512.82 ± 43.27 mM/g. Besides, the “SC50 ABTS” value in assay [4] (isolated compounds (Table 5)) stood at 1.45 ± 0.14 µg/mL. In assay [5], the “SC50 Superoxide” value stood at 47.40 ± 3.01 µg/mL.
Consider `Cc1cc(C(C)(C)C)c(O)c(C(C)(C)C)c1` [BHT, butylated hydroxytoluene, reference compound], for which the “SC50 DPPH” value in assay [1] (isolated compounds (Table 5)) was 36.99 ± 4.54 µg/mL; in assay [1] (setting [8]), 33.04 ± 2.12 µg/mL. The “FRAP, TE” value in assay [3] (setting [7]) is 3997.23 ± 144.35 mM/g; in assay [3] (solvent extracts (Table 2), millimolar of Trolox equivalents per gram of extract) it was 4257.97 ± 145.90 mM/g. For the same compound, the entries for the “SC50 ABTS” value in assay [4] (isolated compounds (Table 5)) and in assay [4] (setting [8]) were 17.36 ± 3.14 µg/mL and 14.09 ± 0.24 µg/mL, respectively.
For the compound `O=C(/C=C/c1ccc(O)c(O)c1)O[C@@H]1C[C@](O)(C(=O)O)C[C@@H](O)[C@H]1O` [Chlorogenic acid, chlorogenic acid, reference compound], the IC50 in assay [2] (setting [6]) was 182 µM; in assay [2] (solvent extracts (Table 3), read-out: IC50 AChE (converted)), 188 µM.
With `O=c1c(O)c(-c2ccc(O)c(O)c2)oc2cc(O)cc(O)c12` [Compound 4, quercetin], the “SC50 DPPH” value in assay [1] (isolated compounds (Table 5)) turned out to be 3.36 ± 0.58 µg/mL. Further, in assay [3] (setting [7]), the “FRAP, TE” value is 16,038.26 ± 86.89 mM/g. The “SC50 ABTS” value in assay [4] (isolated compounds (Table 5)) is 3.15 ± 0.49 µg/mL. Moreover, the “SC50 Superoxide” value in assay [5] was determined as 31.89 ± 2.03 µg/mL.
For the compound `C[C@@H]1CC[C@]2(C(=O)O)CC[C@]3(C)C(=CC[C@@H]4[C@@]5(C)C[C@@H](O)[C@@H](O)C(C)(C)[C@@H]5CC[C@]43C)[C@@H]2[C@]1(C)O` [Compound 5, euscaphic acid], the “SC50 DPPH” value in assay [1] (isolated compounds (Table 5)) was above 400 µg/mL. Besides, in assay [2] (setting [6]), the IC50 was 23.8 µM. Also, the “FRAP, TE” value in assay [3] (setting [7]) was 8.67 ± 3.93 mM/g. Moreover, the “SC50 ABTS” value in assay [4] (isolated compounds (Table 5)) is above 400 µg/mL. The “SC50 Superoxide” value in assay [5] is above 400 µg/mL.
As to `Oc1cc(O)c2c(c1)O[C@H](c1ccc(O)c(O)c1)[C@@H](O)C2` [Compound 1, catechin], the “SC50 DPPH” value in assay [1] (isolated compounds (Table 5)) stood at 10.08 ± 3.09 µg/mL. The IC50 in assay [2] (setting [6]) is 90.8 µM. The “FRAP, TE” value in assay [3] (setting [7]) is 8729.33 ± 424.55 mM/g. In addition, the “SC50 ABTS” value in assay [4] (isolated compounds (Table 5)) was found to be 2.23 ± 0.22 µg/mL. The “SC50 Superoxide” value in assay [5] came to 64.43 ± 7.73 µg/mL.
In assay [2], `Oc1ccc(/C=C/c2cc(O)cc(O)c2)cc1` [Compound 6, resveratrol] had an IC50 of 354 µM.
